Source: patent US9758485B2, “Compounds for controlling arthropods” (priority 2013, dated 2017)

Tested on: Lucilia cuprina
Assay: Lucilia cuprina test
Format: in vivo
Conditions: application rate 100 ppm; L1 larvae in minced horsemeat; kill after 2 days
Method: (§1) Solvent: dimethyl sulphoxide
(§2) To produce an appropriate active ingredient formulation, 10 mg of active ingredient are mixed with 0.5 ml of dimethyl sulphoxide, and the concentrate is diluted with water to the desired concentration.
About 20 L1 larvae of the Australian sheep blowfly (Lucilia cuprina) are transferred into a test vessel containing minced horsemeat and the active ingredient preparation of the desired concentration.
After 2 days, the kill in % is determined. 100% means that all the larvae have been killed; 0% means that none of the larvae have been killed.

Compound	efficacy [%]
CCc1cc(C(F)(C(F)(F)F)C(F)(F)F)cc(C)c1-n1cc(-c2cccc(C(=O)NC3CC3)c2F)cn1 [I-T3-70]	100
O=C(NC1CC1)c1c(Cl)ccc(-c2cnn(-c3c(Cl)cc(C(F)(C(F)(F)F)C(F)(F)F)cc3Cl)c2)c1F [I-T3-73]	100
CCc1cc(C(F)(C(F)(F)F)C(F)(F)F)cc(C)c1-n1cc(-c2cncc(C(=O)NC3(C#N)CC3)c2)cn1 [I-T3-76]	90
CCc1cc(C(F)(C(F)(F)F)C(F)(F)F)cc(C)c1-n1cc(-c2cncc(C(=O)NC3CC3)c2)cn1 [I-T3-77]	100
CCc1cc(C(F)(C(F)(F)F)C(F)(F)F)ccc1-n1cc(-c2cncc(C(=O)NC3(C#N)CC3)c2)cn1 [I-T3-78]	100
CCc1cc(C(F)(C(F)(F)F)C(F)(F)F)ccc1-n1cc(-c2cncc(C(=O)NC3CC3)c2)cn1 [I-T3-79]	80
CCc1cc(C(F)(F)C(F)(F)F)cc(C)c1-n1cc(-c2ccc(Cl)c(C(=O)NCC(F)(F)F)c2)cn1 [I-T3-82]	100
CCc1cc(C(F)(F)C(F)(F)F)cc(C)c1-n1cc(-c2ccc(Cl)c(C(=O)NC3CSC3)c2)cn1 [I-T3-83]	100

Tested on: Ctenocephalides felis
Assay: Ctenocephalides felis - oral test
Format: in vivo
Conditions: application rate 100 ppm in citrated cattle blood; adult fleas; kill after 2 days
Method: Ctenocephalides felis—Oral Test
as §1
For the purpose of producing an appropriate active ingredient formulation, 10 mg of active ingredient are mixed with 0.5 ml of dimethyl sulphoxide. Dilution with citrated cattle blood gives the desired concentration.
About 20 unfed adult cat fleas (Ctenocephalides felis) are placed into a chamber which is closed at the top and bottom with gauze. A metal cylinder whose bottom end is closed with parafilm is placed onto the chamber. The cylinder contains the blood/active ingredient preparation, which can be imbibed by the fleas through the parafilm membrane.
After 2 days, the kill in % is determined. 100% means that all of the fleas have been killed; 0% means that none of the fleas have been killed.

Compound	efficacy [%]
CCc1cc(C(F)(C(F)(F)F)C(F)(F)F)cc(C)c1-n1cc(-c2cccc(C(=O)NC3CC3)c2F)cn1 [I-T3-70]	95
O=C(NC1CC1)c1c(Cl)ccc(-c2cnn(-c3c(Cl)cc(C(F)(C(F)(F)F)C(F)(F)F)cc3Cl)c2)c1F [I-T3-73]	100
CCc1cc(C(F)(C(F)(F)F)C(F)(F)F)cc(C)c1-n1cc(-c2cncc(C(=O)NC3(C#N)CC3)c2)cn1 [I-T3-76]	100
CCc1cc(C(F)(C(F)(F)F)C(F)(F)F)cc(C)c1-n1cc(-c2cncc(C(=O)NC3CC3)c2)cn1 [I-T3-77]	100
CCc1cc(C(F)(C(F)(F)F)C(F)(F)F)ccc1-n1cc(-c2cncc(C(=O)NC3(C#N)CC3)c2)cn1 [I-T3-78]	100
CCc1cc(C(F)(C(F)(F)F)C(F)(F)F)ccc1-n1cc(-c2cncc(C(=O)NC3CC3)c2)cn1 [I-T3-79]	95
CCc1cc(C(F)(F)C(F)(F)F)cc(C)c1-n1cc(-c2ccc(Cl)c(C(=O)NCC(F)(F)F)c2)cn1 [I-T3-82]	95
CCc1cc(C(F)(F)C(F)(F)F)cc(C)c1-n1cc(-c2ccc(Cl)c(C(=O)NC3CSC3)c2)cn1 [I-T3-83]	95

Tested on: not listed separately
Assay: logP determination by HPLC on a reversed-phase column (C18), EEC Directive 79/831 Annex V.A8
Format: physicochemical
Conditions: HPLC-MS method a), Table I-T3

Compound	logP^a)
CCc1cc(C(F)(C(F)(F)F)C(F)(F)F)cc(C)c1-n1cc(-c2cccc(C(=O)NC3CC3)c2F)cn1 [I-T3-70]	4.7
O=C(NC1CC1)c1c(Cl)ccc(-c2cnn(-c3c(Cl)cc(C(F)(C(F)(F)F)C(F)(F)F)cc3Cl)c2)c1F [I-T3-73]	4.5
CCc1cc(C(F)(C(F)(F)F)C(F)(F)F)cc(C)c1-n1cc(-c2cncc(C(=O)NC3(C#N)CC3)c2)cn1 [I-T3-76]	3.4
CCc1cc(C(F)(C(F)(F)F)C(F)(F)F)cc(C)c1-n1cc(-c2cncc(C(=O)NC3CC3)c2)cn1 [I-T3-77]	3.4
CCc1cc(C(F)(C(F)(F)F)C(F)(F)F)ccc1-n1cc(-c2cncc(C(=O)NC3(C#N)CC3)c2)cn1 [I-T3-78]	3.8
CCc1cc(C(F)(C(F)(F)F)C(F)(F)F)ccc1-n1cc(-c2cncc(C(=O)NC3CC3)c2)cn1 [I-T3-79]	3.3
CCc1cc(C(F)(F)C(F)(F)F)cc(C)c1-n1cc(-c2ccc(Cl)c(C(=O)NCC(F)(F)F)c2)cn1 [I-T3-82]	4.0
CCc1cc(C(F)(F)C(F)(F)F)cc(C)c1-n1cc(-c2ccc(Cl)c(C(=O)NC3CSC3)c2)cn1 [I-T3-83]	4.6

Tested on: Musca domestica
Assay: Musca domestica test
Format: in vivo
Conditions: application rate 100 ppm; adult houseflies; kill after 2 days
Method: as §1, §2
Vessels containing a sponge treated with sugar solution and the active ingredient formulation of the desired concentration are populated with 10 adult houseflies (Musca domestica).
After 2 days, the kill in % is determined. 100% means that all of the flies have been killed; 0% means that none of the flies have been killed.

Compound	efficacy [%]
O=C(NC1CC1)c1c(Cl)ccc(-c2cnn(-c3c(Cl)cc(C(F)(C(F)(F)F)C(F)(F)F)cc3Cl)c2)c1F [I-T3-73]	100
CCc1cc(C(F)(C(F)(F)F)C(F)(F)F)cc(C)c1-n1cc(-c2cncc(C(=O)NC3(C#N)CC3)c2)cn1 [I-T3-76]	90
CCc1cc(C(F)(C(F)(F)F)C(F)(F)F)cc(C)c1-n1cc(-c2cncc(C(=O)NC3CC3)c2)cn1 [I-T3-77]	100
CCc1cc(C(F)(C(F)(F)F)C(F)(F)F)ccc1-n1cc(-c2cncc(C(=O)NC3CC3)c2)cn1 [I-T3-79]	80

Tested on: Boophilus microplus
Assay: Boophilus microplus - injection test
Format: in vivo
Conditions: application rate 20 μg/animal; injected into engorged adult female ticks; laying of fertile eggs, after 7 days
Method: Boophilus microplus—Injection Test
as §1
To produce an appropriate active ingredient formulation, 10 mg of active ingredient are mixed with 0.5 ml of solvent and the concentrate is diluted with solvent to the desired concentration.
1 μl of the active ingredient solution is injected into the abdomen of 5 engorged adult female cattle ticks (Boophilus microplus). The animals are transferred into dishes and kept in a climate-controlled room.
Efficacy is assessed after 7 days by laying of fertile eggs. Eggs which are not visibly fertile are stored in a climate-controlled cabinet until the larvae hatch after about 42 days. An efficacy of 100% means that none of the ticks has laid any fertile eggs; 0% means that all the eggs are fertile.

Compound	efficacy [%]
CCc1cc(C(F)(C(F)(F)F)C(F)(F)F)cc(C)c1-n1cc(-c2cccc(C(=O)NC3CC3)c2F)cn1 [I-T3-70]	100
O=C(NC1CC1)c1c(Cl)ccc(-c2cnn(-c3c(Cl)cc(C(F)(C(F)(F)F)C(F)(F)F)cc3Cl)c2)c1F [I-T3-73]	100
CCc1cc(C(F)(C(F)(F)F)C(F)(F)F)cc(C)c1-n1cc(-c2cncc(C(=O)NC3(C#N)CC3)c2)cn1 [I-T3-76]	100
CCc1cc(C(F)(C(F)(F)F)C(F)(F)F)cc(C)c1-n1cc(-c2cncc(C(=O)NC3CC3)c2)cn1 [I-T3-77]	100
CCc1cc(C(F)(C(F)(F)F)C(F)(F)F)ccc1-n1cc(-c2cncc(C(=O)NC3(C#N)CC3)c2)cn1 [I-T3-78]	100
CCc1cc(C(F)(C(F)(F)F)C(F)(F)F)ccc1-n1cc(-c2cncc(C(=O)NC3CC3)c2)cn1 [I-T3-79]	100
CCc1cc(C(F)(F)C(F)(F)F)cc(C)c1-n1cc(-c2ccc(Cl)c(C(=O)NCC(F)(F)F)c2)cn1 [I-T3-82]	100
CCc1cc(C(F)(F)C(F)(F)F)cc(C)c1-n1cc(-c2ccc(Cl)c(C(=O)NC3CSC3)c2)cn1 [I-T3-83]	100
